In ChEMBL document CHEMBL1158720, “Ambigol C and 2,4-dichlorobenzoic acid, natural products produced by the terrestrial cyanobacterium Fischerella ambigua” (J Nat Prod, 2005):
In brackets after ≈: the same amount, converted by molar mass. Activity calls are given as the source filed them. The calls are words filed in the database; no cut-off is given here.

Legend:
Mycotypha microspora = experiment: Antimicrobial activity against Mycotypha microspora at 50 ug/filter disk; format: functional
Plasmodium falciparum [1] = experiment: Antiplasmodial activity against chloroquine-resistant Plasmodium falciparum K1; format: functional, organism-based
Plasmodium falciparum [2] = experiment: Antiplasmodial activity against chloroquine-sensitive Plasmodium falciparum NF54; format: functional, organism-based
Biomphalaria glabrata = experiment: Molluscicidal activity against Biomphalaria glabrata at 100 ug/ml; format: functional, organism-based
Microbotryum violaceum = experiment: Antimicrobial activity against […] at 50 ug/filter disk; format: functional
L6 = experiment: Cytotoxicity against rat L6 cells; format: functional
Escherichia coli = experiment: Antimicrobial activity against Escherichia coli at 50 ug/filter disk; format: functional
[3] = system: Trypanosoma brucei rhodesiense; experiment: Antitrypanosomal activity against Trypanosoma brucei rhodesiense trypomastigotes; format: functional
[Chlorella] fusca = Antimicrobial activity against Chlorella fusca at 50 ug/filter disk; format: functional, Scenedesmus fuscus
Priestia megaterium = experiment: Antimicrobial activity against Bacillus megaterium at 50 ug/filter disk; format: functional
Fusarium oxysporum = experiment: Antimicrobial activity against Fusarium oxysporum at 50 ug/filter disk; format: functional
Trypanosoma cruzi = experiment: Antitrypanosomal activity against Trypanosoma cruzi trypomastigotes; format: functional
[4] = system: Aspergillus pseudoglaucus; experiment: Antimicrobial activity against Eurotium repens at 50 ug/filter disk; format: functional
[5] = system: Mycobacterium tuberculosis; experiment: Antimicrobial activity against Mycobacterium tuberculosis; format: functional

## Oc1c(Cl)cc(Cl)cc1-c1c(Cl)cc(Cl)c(Oc2ccc(Cl)cc2Cl)c1O [AMBIGOL A]
Mycotypha microspora
  inhibition zone (IZ): 4 mm
Plasmodium falciparum [1]
  IC50: 0.846 µg/mL (≈ 1.74 µM)
Plasmodium falciparum [2]
  IC50: 1.62 µg/mL (≈ 3.35 µM)
Biomphalaria glabrata
  Activity: Active
Microbotryum violaceum
  inhibition zone (IZ): 7 mm
L6
  MIC: 33 µg/mL (≈ 68 µM)
Escherichia coli
  Activity: inactive
[3]
  MIC: 33 µg/mL (≈ 68 µM)
[Chlorella] fusca
  inhibition zone (IZ): 3 mm
Priestia megaterium
  inhibition zone (IZ): 8 mm
Fusarium oxysporum
  inhibition zone (IZ): 8 mm
Trypanosoma cruzi
  MIC: 33 µg/mL (≈ 68 µM)
[4]
  inhibition zone (IZ): 7 mm
[5]
  MIC: 64 µg/mL (≈ 132 µM)

## Oc1c(Cl)c(Oc2ccc(Cl)cc2Cl)cc(Oc2ccc(Cl)cc2Cl)c1Cl [AMBIGOL C]
Mycotypha microspora
  Activity: inactive
Plasmodium falciparum [1]
  IC50: 1.54 µg/mL (≈ 3.17 µM)
Plasmodium falciparum [2]
  IC50: 2.5 µg/mL (≈ 5.15 µM)
Biomphalaria glabrata
  Activity: inactive
Microbotryum violaceum
  inhibition zone (IZ): 5 mm
L6
  MIC: 100 µg/mL (≈ 206 µM)
Escherichia coli
  Activity: inactive
[3]
  MIC: 11 µg/mL (≈ 22.7 µM)
[Chlorella] fusca; Scenedesmus fuscus
  Activity: inactive
Priestia megaterium
  inhibition zone (IZ): 7 mm
Fusarium oxysporum
  Activity: inactive
Trypanosoma cruzi
  MIC: 100 µg/mL (≈ 206 µM)
[4]
  Activity: inactive
[5]
  MIC: > 128 µg/mL

## C[C@@H]1CC[C@H]2[C@@H](C)C(=O)O[C@@H]3O[C@@]4(C)CC[C@@H]1[C@]32OO4 [ARTEMISININ]
Plasmodium falciparum [1]
  IC50: 0.001 µg/mL (≈ 0.00354 µM)
Plasmodium falciparum [2]
  IC50: 0.003 µg/mL (≈ 0.0106 µM)

## Nc1nc(N)nc(Nc2ccc([As]3SCC(CO)S3)cc2)n1 (configuration not stated) [MELARSOPROL]
[3]
  MIC: 0.011 µg/mL
Trypanosoma cruzi
  MIC: 0.011 µg/mL

## Clc1ccc(COC(Cn2ccnc2)c2ccc(Cl)cc2Cl)c(Cl)c1 (configuration not stated) [MICONAZOLE]
Mycotypha microspora
  inhibition zone (IZ): 20 mm
Microbotryum violaceum
  inhibition zone (IZ): 20 mm
Escherichia coli
  inhibition zone (IZ): 20 mm
[Chlorella] fusca
  inhibition zone (IZ): 20 mm
Priestia megaterium
  inhibition zone (IZ): 20 mm
Fusarium oxysporum
  inhibition zone (IZ): 20 mm
[4]
  inhibition zone (IZ): 20 mm

## CO[C@H]1/C=C/O[C@@]2(C)Oc3c(C)c(O)c4c(O)c(c(/C=N/N5CCN(C)CC5)c(O)c4c3C2=O)NC(=O)/C(C)=C\C=C\[C@H](C)[C@H](O)[C@@H](C)[C@@H](O)[C@@H](C)[C@H](OC(C)=O)[C@@H]1C [RIFAMPIN]
[5]
  MIC: 0.125 µg/mL (≈ 0.152 µM)

## CN[C@@H]1[C@H](O[C@H]2[C@H](O[C@H]3[C@H](O)[C@@H](O)[C@H](N=C(N)N)[C@@H](O)[C@@H]3N=C(N)N)O[C@@H](C)[C@]2(O)C=O)O[C@@H](CO)[C@H](O)[C@H]1O.CN[C@@H]1[C@H](O[C@H]2[C@H](O[C@H]3[C@H](O)[C@@H](O)[C@H](N=C(N)N)[C@@H](O)[C@@H]3N=C(N)N)O[C@@H](C)[C@]2(O)C=O)O[C@@H](CO)[C@H](O)[C@H]1O.O=S(=O)(O)O.O=S(=O)(O)O.O=S(=O)(O)O [STREPTOMYCIN SULFATE]
Mycotypha microspora
  inhibition zone (IZ): 4 mm
Microbotryum violaceum
  inhibition zone (IZ): 4 mm
Escherichia coli
  inhibition zone (IZ): 4 mm
[Chlorella] fusca
  inhibition zone (IZ): 4 mm
Priestia megaterium
  inhibition zone (IZ): 4 mm
Fusarium oxysporum
  inhibition zone (IZ): 4 mm
[4]
  inhibition zone (IZ): 4 mm
